# Experimental data as given in patent US11696913B2, “Prolonged ectoparasite-controlling agent for animal” (MITSUI CHEMICALS AGRO, INC., priority 2017, dated 2023).
# Where two headings read alike, the source gives them in different places.
# Experiments:
# Ctenocephalides felis [1] = test: Ctenocephalides felis in-vitro feeding test with fleas (CTECFE oral); settings: 48 hours, read-out: insecticidal feeding activity; for pest or weed control at 0.8 ppm: dose 0.8 ppm in citrated cattle blood; for pest or weed control at 4 ppm: dose 4 ppm in citrated cattle blood; for pest or weed control at 0.032 ppm: dose 0.032 ppm in citrated cattle blood; for pest or weed control at 0.16 ppm: dose 0.16 ppm in citrated cattle blood
# Procedure, shortened: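 About 20 unfed adult cat fleas fed through parafilm on citrated cattle blood containing test substance (DMSO solution diluted in blood), held at about 37° C. Kill rate scored after 48 hours, 100% meaning all fleas dead.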
# Ctenocephalides felis [2] = test: Systemic treatment in-vivo test with cat flea on rats; settings: Ctenocephalides felis, ip, intraperitoneal injection
# Procedure, shortened: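 Rats dosed intraperitoneally per body weight in glycerol formal (up to 25% NMP for poorly soluble compounds). 30 D. variabilis nymphs released on treatment day and weekly, 30 C. felis fleas 24 h later; live attached engorged ticks counted at 48 h (±4 h), live fleas at 24 h, efficacy versus placebo group.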
# Ctenocephalides felis [3] = test: In vitro contact test with fleas; settings: read-out: insecticidal activity; for pest or weed control at 0.04 µg/cm2, 0.04 µg/cm2: dose 0.04 μg/cm^2, dead or moribund fleas after 48 h; for pest or weed control at 0.2 µg/cm2, 0.2 µg/cm2: dose 0.2 μg/cm^2, dead or moribund fleas after 48 h; for pest or weed control at 1 µg/cm2, 1 µg/cm2: dose 1 μg/cm^2, dead or moribund fleas after 48 h
# Procedure, shortened: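 Adult male and female cat fleas (5-10 per tube) placed in glass tubes coated with compound from acetone solution (900 ppm gives 5 μg/cm^2), kept at room temperature and ambient humidity. After 48 h, motionless or uncoordinated fleas scored dead or moribund; activity expressed as % dead or moribund.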
# [4] = tested on: Rhipicephalus (Boophilus) microplus; test: In vitro injection test with Rhipicephalus (Boophilus) microplus (BOOPMI Inj); settings: 168 h, laid fertile eggs after 7 days, read-out: acaricidal activity; for pest or weed control at 32 ng: dose 0.032 μg/animal injected; for pest or weed control at 0.00016 mg: dose 0.16 μg/animal injected; for pest or weed control at 0.0008 mg: dose 0.8 μg/animal injected
# Procedure, shortened: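 Test substance in DMSO; 1 μl injected into abdomen of each of 5 engorged adult female ticks, then held at 28° C., 85% rel. hum. Activity scored after 7 days from laying of fertile eggs: 100% = no eggs or all infertile, 0% = all eggs fertile.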
# Spodoptera litura = test: Insecticidal testing against common cutworm; type: in vivo; settings: foliar, 144 h, concentration 100 ppm, cabbage leaf dip, second-stage larvae, after 6 days, read-out: pesticidal rate
# Text: Insecticidal Testing Against Common Cutworm (Spodoptera litura)
# Plutella xylostella = test: Insecticidal testing against diamondback moth; type: in vivo; settings: foliar, 144 h, concentration 100 ppm, cabbage leaf dip, third-stage larvae, after 6 days, read-out: pesticidal rate
# Text: Insecticidal Testing Against Diamondback Moth (Plutella xylostella)
# Dermacentor variabilis = test: In vitro contact test with adult hard ticks (Dermacentor variabilis); settings: read-out: acaricidal activity; for pest or weed control at 0.2 µg/cm2, 0.2 µg/cm2: dose 0.2 μg/cm^2, 48 h; for pest or weed control at 1 µg/cm2, 1 µg/cm2: dose 1 μg/cm^2, 48 h
# Procedure, shortened: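 Adult R. sanguineus, I. ricinus, D. variabilis or A. americanum nymphs exposed in glass vials coated with compound from acetone (900 ppm gives 5 μg/cm^2). Held 48 h at room temperature (R. sanguineus) or 21° C., 85% rel. hum.; then heated at 45-50° C. ≤5 min, motionless or uncoordinated ticks scored dead/moribund.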
# [5] = SD 2, read-out: Geometric mean percent reduction in live flea (Ctenocephalides felis) counts compared to untreated control rats
# [6] = SD 9, read-out: Geometric mean percent reduction in live flea (Ctenocephalides felis) counts compared to untreated control rats
# [7] = SD 16, read-out: Geometric mean percent reduction in live flea (Ctenocephalides felis) counts compared to untreated control rats
# [8] = SD 23, read-out: Geometric mean percent reduction in live flea (Ctenocephalides felis) counts compared to untreated control rats
# [9] = SD 30, read-out: Geometric mean percent reduction in live flea (Ctenocephalides felis) counts compared to untreated control rats
SMILES,pest or weed control at 0.8 ppm (Ctenocephalides felis [1]),pest or weed control at 4 ppm (Ctenocephalides felis [1]),"pest or weed control at 0.04 µg/cm2, 0.04 µg/cm2 (Ctenocephalides felis [3])","pest or weed control at 0.2 µg/cm2, 0.2 µg/cm2 (Ctenocephalides felis [3])","pest or weed control at 1 µg/cm2, 1 µg/cm2 (Ctenocephalides felis [3])",pest or weed control at 32 ng [4],pest or weed control at 0.00016 mg [4],pest or weed control at 0.0008 mg [4],pest or weed control at 0.032 ppm (Ctenocephalides felis [1]),pest or weed control at 0.16 ppm (Ctenocephalides felis [1]),inhibition in vivo at 10 mg/kg (Ctenocephalides felis [2]; [5]),inhibition in vivo at 10 mg/kg (Ctenocephalides felis [2]; [6]),inhibition in vivo at 10 mg/kg (Ctenocephalides felis [2]; [7]),inhibition in vivo at 10 mg/kg (Ctenocephalides felis [2]; [8]),inhibition in vivo at 10 mg/kg (Ctenocephalides felis [2]; [9]),pest or weed control at 100 ppm (Spodoptera litura),pest or weed control at 100 ppm (Plutella xylostella),"pest or weed control at 0.2 µg/cm2, 0.2 µg/cm2 (Dermacentor variabilis)","pest or weed control at 1 µg/cm2, 1 µg/cm2 (Dermacentor variabilis)",other results
CN(C(=O)c1ccc(F)cc1)c1cccc(C(=O)Nc2c(I)cc(C(F)(C(F)(F)F)C(F)(F)F)cc2C(F)(F)F)c1F [Compound 24],95%,95%,95%,95%,95%,100%,100%,100%,–,–,–,–,–,–,–,–,–,–,–,inhibition in vivo at 5 mg/kg (Ctenocephalides felis [2]; [5]): 100%; inhibition in vivo at 5 mg/kg (Ctenocephalides felis [2]; [6]): 99%; inhibition in vivo at 5 mg/kg (Ctenocephalides felis [2]; [7]): 99%; inhibition in vivo at 5 mg/kg (Ctenocephalides felis [2]; [8]): 36%
CN(C(=O)c1ccc(F)cc1)c1cccc(C(=O)Nc2c(I)cc(C(F)(C(F)(F)F)C(F)(F)F)cc2OC(F)(F)F)c1F [Compound 74],95%,95%,95%,95%,95%,100%,100%,100%,95%,95%,91%,96%,86%,89%,78%,≥ 70%,≥ 70%,90%,90%,–
CN(C(=O)c1ccc(F)c(F)c1)c1cccc(C(=O)Nc2c(I)cc(C(F)(C(F)(F)F)C(F)(F)F)cc2C(F)(F)F)c1F [Compound 51],95%,95%,95%,95%,95%,100%,100%,100%,95%,95%,100%,100%,98%,90%,90%,≥ 70%,≥ 70%,90%,90%,pest or weed control at 0.0064 ppm (Ctenocephalides felis [1]; dose 0.0064 ppm in citrated cattle blood): 95%; inhibition in vivo at 2 mg/kg (Ctenocephalides felis [2]; [5]): 100%; inhibition in vivo at 2 mg/kg (Ctenocephalides felis [2]; [6]): 96%; inhibition in vivo at 2 mg/kg (Ctenocephalides felis [2]; [7]): 67%; inhibition in vivo at 2 mg/kg (Ctenocephalides felis [2]; [8]): 37%
"O=C(Nc1cccc(C(=O)Nc2c(I)cc(C(F)(C(F)(F)F)C(F)(F)F)cc2C(F)(F)F)c1F)c1ccc(C(F)(F)F)nc1 [Compound 67, N-(2-fluoro-3-((2-iodo-4-(perfluoropropan-2-yl)-6-(trifluoromethyl)phenyl)carbamoyl)phenyl)-6-(trifluoromethyl)nicotinamide]",95%,95%,95%,95%,95%,–,100%,100%,–,95%,100%,100%,93%,61%,58%,≥ 70%,≥ 70%,90%,90%,inhibition in vivo at 2 mg/kg (Ctenocephalides felis [2]; [5]): 100%; inhibition in vivo at 2 mg/kg (Ctenocephalides felis [2]; [6]): 96%; inhibition in vivo at 2 mg/kg (Ctenocephalides felis [2]; [7]): 78%; inhibition in vivo at 2 mg/kg (Ctenocephalides felis [2]; [8]): 11%
"CN(C(=O)c1ccc(C(F)(F)F)nc1)c1cccc(C(=O)Nc2c(I)cc(C(F)(C(F)(F)F)C(F)(F)F)cc2C(F)(F)F)c1F [Compound 66, N-(2-fluoro-3-((2-iodo-4-(perfluoropropan-2-yl)-6-(trifluoromethyl)phenyl)carbamoyl)phenyl)-N-methyl-6-(trifluoromethyl)nicotinamide]",95%,95%,–,95%,95%,–,100%,100%,–,95%,100%,100%,100%,100%,79%,≥ 70%,≥ 70%,–,90%,–
CN(C(=O)c1ccc(C(F)(F)F)nc1)c1cccc(C(=O)Nc2c(I)cc(C(F)(C(F)(F)F)C(F)(F)C(F)(F)F)cc2C(F)(F)F)c1F (centres unmarked) [Compound 119],95%,95%,95%,95%,95%,100%,100%,100%,95%,95%,100%,97%,94%,62%,44%,≥ 70%,≥ 70%,90%,90%,–
CN(C(=O)c1ccc(F)cc1)c1cccc(C(=O)Nc2c(I)cc(C(F)(C(F)(F)F)C(F)(F)C(F)(F)F)cc2C(F)(F)F)c1F (centres unmarked) [Compound 37],95%,95%,95%,95%,95%,100%,100%,100%,95%,95%,100%,97%,97%,100%,80%,–,–,90%,90%,pest or weed control at 6.4 ng ([4]; dose 0.0064 μg/animal injected): 100%
